The test system of assay [1] is Arabidopsis thaliana. Nature of the assay: HTPS (high throughput on soil) - Dicot - Post-emergence. The format is in vivo. Conditions: N/A: not active; for Emax: read-out: HTPS - Dicot - Post Max effect; for HTPS - Dicot - Post ED50: from normalized green area. In short, it runs like this:
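Single plants per well in sand, greenhouse-grown; at 2-true-leaf stage 5 μL compound in 50% acetone/0.1% tween-20 applied to leaves, top dose 1.5 Kg/Ha, 2.5-fold dilutions, 8 repeats. Green area imaged (11 and 18 DAA) for % inhibition; ED50/ED75/ED90 fitted from dose-response, t-test versus controls.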

The test system of assay [2] is Eragrostis teff. Nature of the assay: HTPS - Monocot - Pre-emergence. The conditions noted are these: N/A: not active; for Emax: read-out: HTPS - Monocot - Pre Max effect. It counts as in vivo. In short, it runs like this:
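Pre-emergence: compound in 50% acetone applied at 30 μL/well onto sown sand (Arabidopsis or Eragrostis teff), max 1.5 Kg/Ha, 2.5-fold dilutions. Green area imaged by RGB, normalized to give % inhibition; ED50, ED75, ED90 from log-dose curves, t-test versus controls.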

Assay [3] relates to SETVI. Put plainly: In-planta LTP pre-emergence, visual phenotype. Conditions: Setaria viridis, 432 h, monocot. The format is in vivo, Setaria viridis. The procedure: (§1) A basic panel of 8 weed species (Table 3) were sowed in 4×4×7 cm plastic pots containing inert sand (Sweet sand), intensively washed using osmosis water. Each specie was sowed in a separate pot. In each pot 10-15 seeds were sowed according to the specie viability. Sowing was performed one day before application. The plants were grown for 21 days in a controlled greenhouse (26±2° C. day 20±2° C. night). Hood irrigation (tap water+Shefer 5:3:8 8 mM) was given at a 50% water content by weight. Compounds were soluble in water (DDW), and commercial herbicide control was soluble in formulation B (Table 4). Application was conducted with an industrial sprayer (TeeJet 6502E nozzle) at a rate of 2 kg/ha and spray volume of […]. Pre-emergence advanced dose response experiment application was conducted at six rates between 1-0.0312 kg/ha and spray volume of […]. Percentage of emergence was evaluated at 15 DAA. Visual phenotyping was recorded using a scale of 0-6 (0: no visible effect, 6: maximum effect) at 18 DAA. All experiments included an untreated control, a solvent control and a positive control (commercial herbicide A.I.). Statistical analysis for visual phenotyping determined by a median value of ≥3.5 and Fisher test (pval≤0.05). Statistical analysis for plant emergence determined by % emergence ≥50 and T test (pval≤0.05), as well as Wilcox test (pval≤0.05).

Assay [4] relates to LOLPE. Nature of the assay: In-planta LTP pre-emergence, visual phenotype. It counts as in vivo, Lolium perenne. The conditions noted are these: monocot. As to the method:
as §1

Where [5] appears, read: read-out: DE Disturbed emergence (% effect).
Where [6] appears, read: read-out: IG Inhibited growth (% effect).

Read-outs that look alike come from different tables or passages of the source.

Consider `CC(N)COc1cccc(C(=O)O)c1` (stereo not shown) [Compound 106], for which, in assay [1], the Emax was 100% and the “HTPS - Dicot - Post ED50” value stood at 102 g/ha. Further, in assay [2], the “HTPS - Monocot - Pre ED50” value worked out at 380 g/ha and the Emax was found to be 87%. The pest or weed control at 2000 g/ha in assay [3] (setting [5]) is 100%. In assay [3] (setting [6]), the pest or weed control at 2000 g/ha came to 100%. In assay [4], the “DE Disturbed emergence (% effect)” value is recorded as “DE (60) %”.

In the case of `C#CCOC(=O)c1cccc(OCC(C)N)c1` (stereo not shown) [Compound 111], the Emax in assay [1] stood at 100%. The “HTPS - Dicot - Post ED50” value in assay [1] worked out at 51 g/ha. In addition, the pest or weed control at 2000 g/ha in assay [3] (setting [5]) and in assay [3] (setting [6]) was 100% each time.

Take `CCCCOC(=O)c1cccc(OCC(C)N)c1` (stereo not shown) [Compound 112]: in assay [1], the Emax was 100% and the “HTPS - Dicot - Post ED50” value is listed as 300 g/ha. The pest or weed control at 2000 g/ha in assay [3] (setting [5]) came to 80%. Also, in assay [3] (setting [6]), the pest or weed control at 2000 g/ha is 100%. Moreover, the “IG Inhibited growth (% effect)” value in assay [4] is listed as “IG (40) %”.

Turning to `C[C@@H](N)COc1cccc(C(=O)O)c1` [Compound 154], in assay [1], the Emax is 100% and the “HTPS - Dicot - Post ED50” value is given as 16 g/ha. In assay [2], the “HTPS - Monocot - Pre ED50” value is listed as 150 g/ha and the Emax came out at 100%. Besides, in assay [3] (setting [5]), the pest or weed control at 2000 g/ha was 100%. Moreover, the “IG Inhibited growth (% effect)” value in assay [4] is “IG (60) %”.

The values are drawn from US20240336567A1, “PESTICIDAL AND HERBICIDAL COMPOUNDS AND METHODS OF USE THEREOF” (AG Plenus Ltd, priority 2021, published 2024).
